Patent publication US20160058829A1, “ANTI-FIBROTIC PEPTIDES AND THEIR USE IN METHODS FOR TREATING DISEASES AND DISORDERS CHARACTERIZED BY FIBROSIS” (Thrasos Innovation, Inc., priority 2011, published 2016)
“Also recorded” adds a separate entry of the source. Positions of bridges follow the written chain, without caps; N, C: chain ends.

B1: BMP-7: bone morphogenetic protein-7; recombinant human BMP7, positive control (protein)
chain: STGSKQRSQNRSKTPKNQEALRMANVAENSSSDQRQACKKHELYVSFRDLGWQDWIIAPEGYAAYYCEGECAFPLNSYMNATNHAIVQTLVHFINPETVPKPCCAPTQLNAISVLYFDDSSNVILKKYRNMVVRACGCH

Legend:
NP-1 cells [1] = test: Hypoxia-induced apoptosis in NP-1 cells (Annexin V); type: cell-based; conditions: 2.5% O2 24 h; BMP-7 1 μg/ml, THR-123 10 μM
Procedure: FIG. 49A-FIG. 49D THR-123 inhibits Hypoxia-induced apoptosis in NP-1 cells. NP-1 cells are incubated with hypoxia (2.5% O2) for 24 h in the presence of indicated molecules. Apoptosis was analyzed by Annexin V labeling (Roche). Representative merged picture (Green: Annexin V and bright field image) of cells treated with hypoxia only (FIG. 49A), hypoxia+BMP-7 (1 μg/ml) FIG. 49(B), hypoxia+THR-123 (10 μM) (FIG. 49C) and hypoxia+ctrl peptide (FIG. 49D).

[2] = test system: pluripotent mesenchymal stem cells (C3H10T1/2); test: Osteoblastic differentiation of pluripotent stem cells (alkaline phosphatase staining); type: cell-based, Murine; conditions: BMP-7 2 ug/mL
Text: Murine pluripotent mesenchymal stem cells (C3H10T1/2) treated with medium alone, BMP-7 or THR-123 were stained for alkaline phosphatase activity, an osteogenic marker. No staining of cells was observed when treated with medium alone (control, panel FIG. 41A) or with THR-123 (panel FIG. 41B). […] Cells were counterstained with hematoxylin.

[3] = test system: mice with unilateral ureteral obstruction (UUO); test: Unilateral ureteral obstruction (UUO) in mice; type: in vivo; conditions: for kidney histology (H&E), day 7 UUO: BMP7 i.p., THR-123 i.p. or orally; for interstitial volume / fibrosis, day 7 UUO: BMP-7 300 μg/Kg every other day i.p., THR-123 5 mg/Kg/day i.p. or oral
Procedure: FIG. 56A-FIG. 56J The effect of THR-123 on mice with unilateral ureteral obstruction (UUO) mice. At the day of UUO, BMP-7 (300 μg/Kg/every other day, intraperitoneal administration) or THR-123 (5 mg/Kg/day, oral or intraperitoneal administration) are initiated. FIG. 56A-FIG. 56D: Masson's trichrome staining of normal kidney, day 5 UUO kidney. FIG. 56A. normal kidney section. […] FIG. 56C, FIG. 56D. […] FIG. 56E. Morphometric analysis for relative interstitial volume. Interstitial volume was calculated by the point counting method. FIG. 56F-FIG. 56I. Masson's trichrome staining of normal kidney, day 7 UUO kidney. […] FIG. 56I. Morphometric analysis for relative interstitial volume. Interstitial volume was calculated by the point counting method. […] Normal mice (n=4), day 5 UUO without treatment (n=4), day 5 UUO-treated with 5 mg/kg THR-123 (n=4), day 5 UUO-treated with 15 mg/kg THR-123 (n=4), day 7 UUO-treated with PBS (n=8), -treated with BMP (n=8) and -treated with THR-123 (n=7 in both i.p. and oral). Data are shown as mean±s.e.m. in the graph (FIG. 56J).
FIG. 57A-FIG. 57H The effect of THR-123 on mice with unilateral ureteral obstruction (UUO) mice (H&E staining). On the day UUO was performed, treatments of BMP7 (300 μg/Kg/every other day, intraperitoneal administration) or THR-123 (5 mg/Kg/day, oral or intraperitoneal administration) are initiated. FIG. 57A. Normal kidney section. FIG. 57B. Day 5 UUO mice FIG. 57C, FIG. 57D. Kidney of UUO mice treated with THR-123 orally at 5 mg/kg (FIG. 57C) or 15 mg/kg (FIG. 57D) E-H. Day 7 UUO kidney histology. […] Normal mice (n=4), day 5 UUO without treatment (n=4), day 5 UUO-treated with 5 mg/kg THR-123 (n=4), day 5 UUO-treated with 15 mg/kg THR-123 (n=4), day 7 UUO-treated with PBS (n=8), -treated with BMP (n=8) and -treated with THR-123 (n=7 in both i.p. and oral).
FIG. 58 Gene expression analysis for the fibrosis markers in mice with UUO. Quantitative RT-PCR analysis for fibronectin-EIII and collagen type-I in normal kidney and day 7 UUO kidney with or without indicated treatment.
Mice are anesthetized with the mixture of ketamine and xylazine. Prepare the ureter from the surrounding tissues and place two ligatures about 5 mm apart in upper two-thirds of the ureter of the left kidney to obtain reliable obstruction. At same day after surgery, mice were initiated treatment with BMP7 (300 μg i.p./Kg/every other day), THR-123 (p.o. 5 mg or 15 mg/Kg/day, i.p. 5 mg/Kg/day) or PBS (i.p.) as control. Mice are sacrificed at day 5 or 7 after operation.

NP-1 cells [4] = test: TGF-β-induced EMT in NP-1 cells (inhibition and reversal); type: cell-based; conditions: for TGF-β-induced E-cadherin loss (co-incubation): 48 h; for TGF-β-induced E-cadherin loss (co-incubation) / TGF-β-induced EMT, cell shape (co-incubation): BMP-7 1 μg/ml, THR-123 10 μM; for E-cadherin expression in TGF-β-incubated cells (reversal) / percentage of cells that regained epithelial characteristics (length to width ratio): NP-1 cells; for TGF-β-induced EMT, cell shape (co-incubation): TGF-β 3 ng/ml with EGF 48 h; for percentage of cells that regained epithelial characteristics (length to width ratio): reversal experiment
Procedure: FIG. 51A-FIG. 51J THR-123 inhibits epithelial-mesenchymal transition in NP-1 cells. FIG. 51A-FIG. 51E: Bright field image. […] F-J. E-cadherin immunofluorescence labeling. NP-1 cells expressed E-cadherin in cell border (FIG. 51F). […] Representative results are shown.
FIG. 53A-FIG. 53L Reversal of EMT by THR-123 in NP-1 cells A-E: Inverted microscopic pictures. FIG. 53A. Basal polygonal epithelial nature of NP1 cells. FIG. 53B. […] FIG. 53C, FIG. 53D. BMP 7 (1 μg/ml) (FIG. 53C) or THR-123 (10 μM) (FIG. 53D) were added to mesenchymal like cells induced by TGF-β and EGF for the additional 48 hrs. […] FIG. 53E. […] FIG. 53F. Ratio of length to width was calculated in reversal experiment. Five representative pictures of the cells in different areas of the well, were taken by using the inverted microscope. A total of 100 cells were analyzed (20 cells per picture). […] The data are presented mean+s.e.m. in the graph. FIG. 53G. […] Mean plus one SD was estimated as epithelial characteristics and the percentage of epithelial characteristics in each experimental setting were estimated. 18% of BMP7 and 24% of THR-123 treated NP-1 cells regained epithelial characteristics. FIG. 53H-FIG. 53L. Immunofluorescence picture for E-cadherin. TGF-β incubation decreased E-cadherin levels when compare to untreated cells (FIG. 53H, FIG. 53I). […] Representative results from three independent experiments are shown.
EMT was induced in NP1 cells or MCT cells by incubation with 3 ng/ml recombinant human […] for 48 h. When EMT occurred, the medium was removed and replaced with THR-123 (10 μM) or recombinant human BMP7 (100 ng/ml) in DMEM. After 48 h, the cells were characterized by immunocytochemistry using primary monoclonal antibodies to E-cadherin ([…]) and rhodamine-conjugated secondary antibodies (Jackson Immunoresearch, West Grove, Pa.) as previously described. The staining was visualized by fluorescence microscopy and documented representative pictures using Spot advanced software (Carl Zeiss, Oberkochen, Germany). Also protein and total RNA were harvested at the end of experiment. For the morphometric analysis for EMT, length/width of cells in bright field pictures are measured by image J software. The ratio of length/width was calculated.

Row | Molecule | hypoxia-induced apoptosis (NP-1 cells [1]) | osteoblastic differentiation (alkaline phosphatase staining) [2] | kidney histology (H&E), day 7 UUO [3] | interstitial volume / fibrosis, day 7 UUO ([3]; 5 mg/kg/day) | interstitial volume expansion, day 5 UUO ([3]; THR-123 oral 5 mg/Kg or 15 mg/Kg) | kidney histology, day 5 UUO ([3]; THR-123 orally 5 mg/kg or 15 mg/kg) | expression of fibronectin and type I collagen, day 7 UUO ([3]; quantitative RT-PCR) | TGF-β-induced E-cadherin loss (co-incubation) (NP-1 cells [4]) | E-cadherin expression in TGF-β-incubated cells (reversal) (NP-1 cells [4]) | TGF-β-induced EMT, cell shape (co-incubation) (NP-1 cells [4]) | percentage of cells that regained epithelial characteristics (length to width ratio) (NP-1 cells [4]) [%] | interstitial volume / fibrosis, day 7 UUO [3] | interstitial volume / fibrosis, day 7 UUO ([3]; listed as BMP7)
1 | (H)-CYFDDSSNVLCKKYRS-(OH) (H-CYFDDSSNVLCKKYRS-OH; disulfide 1-11; SMILES CC(C)C[C@@H]1NC(=O)[C@H](C(C)C)NC(=O)[C@H](CC(N)=O)NC(=O)[C@H](CO)NC(=O)[C@H](CO)NC(=O)[C@H](CC(=O)O)NC(=O)[C@H](CC(=O)O)NC(=O)[C@H](Cc2ccccc2)NC(=O)[C@H](Cc2ccc(O)cc2)NC(=O)[C@@H](N)CSSC[C@@H](C(=O)N[C@@H](CCCCN)C(=O)N[C@@H](CCCCN)C(=O)N[C@@H](Cc2ccc(O)cc2)C(=O)N[C@@H](CCCNC(=N)N)C(=O)N[C@@H](CO)C(=O)O)NC1=O) [SEQ ID NO: 1] | decreased apoptosis | failed to induce osteoblastic differentiation | preserved tubules | inhibited fibrosis; also recorded: less kidney interstitial volume | inhibited interstitial volume expansion | less tubular atrophy, tubular dilatation and interstitial inflammation | decreased expression of matrix components such as fibronectin and type I collagen | prevents E-cadherin loss | reversed E-cadherin expression | prevents these phenotypic changes | 24 | – | –
2 | B1 | decreased apoptosis | induced osteoblastic differentiation | preserved tubules | – | – | – | – | prevents E-cadherin loss | reversed E-cadherin expression | prevents these phenotypic changes | 18 | ameliorated interstitial volume expansion | less kidney interstitial volume
